Active and inactive are the calls of the source.
Columns and labels:
[1] = biological target: Eukaryotic translation initiation factor 4E (Mus musculus, UniProt P63073); assay: eIF4E–eIF4G protein interaction inhibitors, dose response, biochemical, TR-FRET (AID 855); format: functional;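 also: potency for disrupting eIF4E binding to eIF4GI seen as loss of FRET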
Troponin, cardiac muscle = Troponin, cardiac muscle (Homo sapiens, UniProt P19429+P45379+P63316); assay: Fluorescence-based biochemical high throughput dose response assay for activators of the calcium sensitivity of cardiac Regulated Thin Filaments (RTF). [Related pubchem assays (depositor defined):AID493008, AID493018, AID504382, AID504383]; format: protein-complex assay
HEK293 [2] = assay: cells; format: functional, cell-based; conditions: Homo sapiens
[3] = biological target: Nucleotide-binding oligomerization domain-containing protein 2 (Homo sapiens, UniProt Q9HC29); assay: NOD2 signaling inhibitors, cell-based, luminescence, uHTS, HEK293 (AID 1566); format: functional
HEK293 [4] = assay: NOD1 signaling inhibitors, primary screen, cell-based, luminescence, uHTS (AID 1578); format: functional; conditions: Homo sapiens
HEK293 [5] = assay: cells; format: functional, cell-based; conditions: Homo sapiens; remark: listed apart in the source
HEK293 [6] = assay: NOD2 signaling inhibitors in MDP-stimulated cells, cell-based, uHTS, luminescence (AID 2001); format: functional; conditions: Homo sapiens
HEK293 [7] = assay: cells; format: functional, cell-based; conditions: Homo sapiens; remark: listed apart in the source
Coagulation factor XII = biological target: T1, Coagulation factor XII (Homo sapiens, UniProt P00748); format: functional;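 also: activated factor XIIa alpha cleaving a fluorogenic AMC peptide substrate; inhibitor potency from loss of enzyme activity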
T1 sequence (P00748 whole entry): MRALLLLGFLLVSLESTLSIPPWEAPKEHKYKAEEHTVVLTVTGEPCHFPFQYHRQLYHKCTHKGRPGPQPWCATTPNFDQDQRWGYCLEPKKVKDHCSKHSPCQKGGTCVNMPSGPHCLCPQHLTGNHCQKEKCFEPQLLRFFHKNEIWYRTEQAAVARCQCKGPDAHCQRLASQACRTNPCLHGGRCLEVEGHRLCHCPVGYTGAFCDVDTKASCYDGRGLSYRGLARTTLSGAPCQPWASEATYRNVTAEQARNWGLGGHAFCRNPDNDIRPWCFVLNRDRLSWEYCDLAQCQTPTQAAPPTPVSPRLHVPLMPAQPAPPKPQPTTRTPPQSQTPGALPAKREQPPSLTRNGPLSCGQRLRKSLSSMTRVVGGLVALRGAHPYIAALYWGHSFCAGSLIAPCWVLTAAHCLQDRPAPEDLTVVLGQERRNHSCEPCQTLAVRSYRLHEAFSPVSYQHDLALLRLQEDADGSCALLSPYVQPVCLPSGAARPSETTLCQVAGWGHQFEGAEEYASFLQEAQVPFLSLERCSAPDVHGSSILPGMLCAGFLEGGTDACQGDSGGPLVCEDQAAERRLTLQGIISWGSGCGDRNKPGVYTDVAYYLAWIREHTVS

[8] = A cytotoxicity screen of small molecule inhibitors of the PhoP region in Salmonella typhi identified in the primary screen. [Related pubchem assays: 1850, 1864, 1985 ]; format: functional
[9] = M. tuberculosis H37Rv growth inhibitors, H37Rv strain (AID 1626); format: functional
cells = format: functional
[10] = LGR2 antagonists, dose response, cell-based, HEK293, CRE-luciferase reporter, cherry pick, set 2 (AID 743343); format: functional;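 also: transfected cells were stimulated with diluted bursicon conditioned medium after compound addition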
[11] = MC4R antagonists, dose response, counter-screen for LGR2 antagonist project, cell-based, plate reader, cherry pick (AID 743444); format: functional;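 also: transfected HEK 293 cells stimulated with alpha-MSH peptide; potency of inhibitors of the alpha-MSH evoked signal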
Protein RecA = biological target: T2, Protein RecA (Mycobacterium tuberculosis, UniProt P9WHJ3); assay: Fluorescence Cell-Free Homogeneous Dose Retest to Identify Inhibitors of RecA-Intein Splicing Activity. [Related pubchem assays (depositor defined):AID2097, AID2223, AID489010, AID492950]; format: functional
T2 sequence (P9WHJ3 whole entry): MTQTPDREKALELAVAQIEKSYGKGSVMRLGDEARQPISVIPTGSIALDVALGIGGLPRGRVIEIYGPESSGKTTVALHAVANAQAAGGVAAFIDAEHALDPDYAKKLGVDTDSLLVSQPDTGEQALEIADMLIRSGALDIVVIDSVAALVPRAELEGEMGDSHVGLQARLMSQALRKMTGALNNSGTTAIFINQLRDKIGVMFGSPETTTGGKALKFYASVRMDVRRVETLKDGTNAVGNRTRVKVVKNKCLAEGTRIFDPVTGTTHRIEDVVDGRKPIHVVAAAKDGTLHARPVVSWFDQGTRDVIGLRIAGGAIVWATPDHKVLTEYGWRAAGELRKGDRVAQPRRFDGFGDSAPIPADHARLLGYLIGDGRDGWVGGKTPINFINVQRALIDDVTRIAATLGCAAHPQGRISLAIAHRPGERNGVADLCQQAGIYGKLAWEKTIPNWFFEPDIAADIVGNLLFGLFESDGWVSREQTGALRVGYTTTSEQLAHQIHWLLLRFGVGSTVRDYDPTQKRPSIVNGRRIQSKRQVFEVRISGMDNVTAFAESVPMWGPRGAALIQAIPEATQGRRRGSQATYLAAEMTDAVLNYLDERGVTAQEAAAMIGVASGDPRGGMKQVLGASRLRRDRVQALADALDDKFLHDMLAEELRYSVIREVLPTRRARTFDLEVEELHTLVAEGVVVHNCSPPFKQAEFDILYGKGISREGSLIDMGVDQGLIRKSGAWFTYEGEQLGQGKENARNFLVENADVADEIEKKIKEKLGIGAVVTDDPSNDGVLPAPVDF

[12] = biological target: T3, Replicative DNA helicase DnaB (Mycobacterium tuberculosis, UniProt P9WMR3); assay: DnaB intein splicing inhibitors, dose response, biochemical, cell-free fluorescence (AID 449749); format: functional
T3 sequence (P9WMR3 whole entry): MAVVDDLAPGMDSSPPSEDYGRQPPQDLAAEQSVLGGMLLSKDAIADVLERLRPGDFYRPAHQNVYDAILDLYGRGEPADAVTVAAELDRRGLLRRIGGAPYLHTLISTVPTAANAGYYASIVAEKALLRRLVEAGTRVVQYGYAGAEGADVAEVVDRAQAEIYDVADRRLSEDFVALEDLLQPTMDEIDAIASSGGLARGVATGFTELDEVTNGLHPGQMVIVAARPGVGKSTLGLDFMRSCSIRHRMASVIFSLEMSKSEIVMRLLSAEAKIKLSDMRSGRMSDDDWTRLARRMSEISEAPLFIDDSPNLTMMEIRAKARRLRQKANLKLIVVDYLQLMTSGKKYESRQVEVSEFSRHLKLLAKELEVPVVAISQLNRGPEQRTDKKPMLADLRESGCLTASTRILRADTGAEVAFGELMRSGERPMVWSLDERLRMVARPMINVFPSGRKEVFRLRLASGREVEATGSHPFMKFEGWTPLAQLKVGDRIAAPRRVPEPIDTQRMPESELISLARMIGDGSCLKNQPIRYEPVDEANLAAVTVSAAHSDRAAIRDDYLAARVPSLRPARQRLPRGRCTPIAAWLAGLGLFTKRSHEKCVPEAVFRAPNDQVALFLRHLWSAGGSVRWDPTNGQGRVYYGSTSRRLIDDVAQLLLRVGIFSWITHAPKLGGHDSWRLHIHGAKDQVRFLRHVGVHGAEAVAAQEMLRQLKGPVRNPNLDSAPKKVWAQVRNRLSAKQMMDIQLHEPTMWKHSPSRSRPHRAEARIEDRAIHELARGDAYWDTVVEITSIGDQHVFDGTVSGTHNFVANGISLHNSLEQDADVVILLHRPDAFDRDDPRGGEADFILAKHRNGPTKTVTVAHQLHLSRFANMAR

With `O=C1c2ccccc2C(O)N1Cc1ccccc1Cl` (stereo not given) as the compound, how does the IC50 [1] read?
Its IC50 is > 64 µM (inactive).

For `CC(C)CNC(=S)NC(=O)c1ccccc1Cl`, which EC50 (Troponin, cardiac muscle) is on record?
Its EC50 is > 71.4 µM (inactive).

With `CCCCn1c(SCC(=O)N2CCN(c3ccccc3)CC2)nc2ccsc2c1=O` as the compound, how does the IC50 (HEK293 [2]) read?
The IC50 was > 20 µM (inactive).

What about the EC50 [3] of the same compound?
Its EC50 is 4.06 µM (active).

And the EC50 (HEK293 [4])?
Its EC50 is 9.68 µM (active).

And the IC50 (HEK293 [5])?
Its IC50 is > 20 µM (inactive).

What about the IC50 (HEK293 [6]) of the same compound?
The IC50 was 8.34 µM (active).

And the IC50 (HEK293 [7])?
The IC50 was 11.5 µM (active).

Which IC50 [1] does the source give for `CN1CCN(C2=CC(=O)OC23CCCCC3)CC1` here?
The IC50 was > 64 µM (inactive).

For `N#Cc1c2n(c3c(=O)n(Cc4ccccc4)cnc13)CCCC2`, which IC50 (Coagulation factor XII) is on record?
Its IC50 is > 50 µM (inactive).

Which results are given for `O=C(COc1ccc2ccccc2c1)Nc1nccs1`?
EC50 [8]: > 50 µM (active); IC50 [9]: > 100 µM (active); IC50 (cells): 22.3 µM (active); AC50 [10]: 7.4 µM (active); AC50 [11]: 18 µM (active)

Which EC50 (Troponin, cardiac muscle) does the source give for `COC(=O)c1ccc(S(=O)(=O)N2CCC(O)CC2)n1C` here?
Its EC50 is > 71.4 µM (inactive).

For `O=C(Nc1cccnc1)c1c(O)c2c(n(Cc3ccccc3)c1=O)CCCC2`, which IC50 [1] is on record?
The IC50 was > 64 µM (inactive).

With `O=C(c1[nH]ncc1-c1ccc(Cl)cc1)C1CO1` (stereo not given) as the compound, how does the EC50 [3] read?
Its EC50 is > 20 µM (inactive).

And the EC50 (Protein RecA)?
Its EC50 is 20.9 µM (active).

And the AC50 [12]?
Its AC50 is 31.7 µM (active).

Which results are given for `O=C(c1n[nH]cc1-c1ccc(Cl)cc1)C1CO1` (stereo not given)?
IC50 (HEK293 [2]): > 20 µM (inactive); EC50 (HEK293 [4]): 19.3 µM (active); IC50 (HEK293 [5]): > 20 µM (inactive); IC50 (HEK293 [6]): 5.72 µM (inactive); IC50 (HEK293 [7]): 4.08 µM (active)

Source: ChEMBL document CHEMBL1201862, “PubChem BioAssay data set” (2004)
